According to PubChem BioAssay AID977614 (Broad Institute, 2014):
The source made the active and inactive calls.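 The calls were made as follows: active = parasite count per well reduced by over 3 SD from the mean, with host cell number above 80% of untreated; inactive = the rest.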

Tested on: L. donovani amastigotes in THP-1 macrophages, DAPI imaging, 72 h
Test: antileishmanial activity in infected macrophages – imaging, THP-1 host macrophages, single concentration (AID 977614);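 also: signal is the parasite per host cell ratio from DAPI stained kinetoplasts and nuclei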

Compound	AC50
COCC(=O)NC[C@@H]1[C@H](c2ccccc2)[C@@H](CO)N1C(=O)c1ccccc1	> 10 µM (inactive)
O=C(NC[C@@H]1[C@@H](c2ccccc2)[C@H](CO)N1Cc1cccnc1)c1ccccn1	> 10 µM (inactive)
O=S(=O)(NC[C@H]1[C@@H](c2ccccc2)[C@@H](CO)N1CC1CC1)c1ccccc1	> 10 µM (inactive)
C[C@@H]1CN([C@@H](C)CO)C(=O)CCCn2nncc2CO[C@@H]1CN(C)C(=O)Nc1ccc(-c2cccs2)cc1	> 10 µM (inactive)
CC(C)NC(=O)N1[C@H](CO)[C@H]2c3ccccc3N(C)C[C@H]21	> 10 µM (inactive)
CC(=O)N1[C@@H](CO)[C@@H]2c3ccccc3N(S(=O)(=O)c3ccccc3C)C[C@@H]21	> 10 µM (inactive)
O=S(=O)(c1ccc(F)cc1)N1C[C@H]2[C@@H](c3ccccc31)[C@H](CO)N2Cc1ccccc1Cl	> 10 µM (inactive)
C[C@H]1CN([C@@H](C)CO)C(=O)CCCn2nncc2CO[C@H]1CN(C)S(=O)(=O)c1ccc2c(c1)OCCCO2	> 10 µM (inactive)
C/C=C/c1ccc([C@H]2[C@@H](CO)N(C(=O)CC)[C@H]2CN(C)Cc2cncnc2)cc1	> 10 µM (inactive)
N#Cc1cccc(-c2ccc([C@H]3[C@@H](CO)N[C@@H]3CNC(=O)C3CCC3)cc2)c1	> 10 µM (inactive)
CCCNC(=O)N1[C@H](CO)[C@@H]2c3ccccc3N(C(=O)Nc3cccc(Cl)c3)C[C@@H]21	> 10 µM (inactive)
CCN(C[C@@H]1[C@H](c2ccccc2)[C@@H](CO)N1CC1CC1)C(=O)c1ccccn1	> 10 µM (inactive)
CCC(=O)N1[C@H](CO)[C@@H]2c3ccccc3N(C(=O)c3cnccn3)C[C@@H]21	> 10 µM (inactive)
CC(C)CN(C[C@H]1N[C@H](CO)[C@@H]1c1ccccc1)C(=O)C1CCCCC1	> 10 µM (inactive)
C[C@H](CO)N1C[C@H](C)[C@H](CN(C)C(=O)Oc2cccc3ccccc23)OCc2cnnn2CCCC1=O	> 10 µM (inactive)
C[C@@H]1CN([C@H](C)CO)C(=O)CCCn2nncc2CO[C@H]1CN(C)C(=O)Nc1ccccc1C(F)(F)F	> 10 µM (inactive)
C/C=C/c1ccc([C@H]2[C@@H](CO)N[C@@H]2CNC(=O)C2CC2)cc1	> 10 µM (inactive)
C[C@@H]1CN([C@@H](C)CO)C(=O)CCCn2cc(nn2)CO[C@H]1CN(C)C(=O)Nc1cccc2ccccc12	> 10 µM (inactive)
COCCNC[C@@H]1[C@@H](c2ccccc2)[C@@H](CO)N1c1nc(C)c(C)s1	> 10 µM (inactive)
O=C(C1CCCCC1)N1[C@@H]2CNc3ccccc3[C@@H]2[C@@H]1CO	> 10 µM (inactive)
COc1ccc(C(=O)N2C[C@@H]3[C@H](c4ccccc42)[C@H](CO)N3C(=O)Cc2ccccn2)cc1	> 10 µM (inactive)
C[C@@H]1CN([C@H](C)CO)C(=O)CCCn2cc(nn2)CO[C@H]1CN(C)C(=O)Nc1cccc(C(F)(F)F)c1	> 10 µM (inactive)
O=C(C1CCOCC1)N1C[C@H]2[C@@H](c3ccccc31)[C@H](CO)N2C(=O)Nc1ccccc1F	> 10 µM (inactive)
CN1C[C@@H]2[C@H](c3ccccc31)[C@H](CO)N2S(=O)(=O)c1ccccc1	> 10 µM (inactive)
O=C(c1ccc2c(c1)OCO2)N1C[C@@H]2[C@H](c3ccccc31)[C@@H](CO)N2Cc1cccnc1	> 10 µM (inactive)
O=C(c1ccccc1)N1C[C@@H]2[C@H](c3ccccc31)[C@H](CO)N2Cc1ccccn1	> 10 µM (inactive)
C/C=C/c1ccc([C@@H]2[C@H](CO)N[C@H]2CNS(=O)(=O)c2ccccc2)cc1	> 10 µM (inactive)
COCC(=O)N(C)C[C@H]1[C@H](c2ccccc2)[C@@H](CO)N1C(=O)Cc1ccncc1	> 10 µM (inactive)

Compound	AC50
O=C(NC[C@@H]1N[C@@H](CO)[C@@H]1c1ccccc1)c1ccccc1F	> 10 µM (inactive)
CC(=O)N1[C@H](CO)[C@H]2c3ccccc3N(S(=O)(=O)c3ccccc3C)C[C@H]21	> 10 µM (inactive)
CCN(C[C@@H]1[C@@H](c2ccccc2)[C@H](CO)N1CC1CC1)C(=O)c1ccccn1	> 10 µM (inactive)
CC(C)NC(=O)N1[C@H](CO)[C@@H](c2ccccc2)[C@H]1CN(C)C(=O)c1cccnc1	> 10 µM (inactive)
CC(=O)N1[C@H](CNC(=O)C2CC2)[C@H](c2ccc(-c3ccccc3)cc2)[C@@H]1CO	> 10 µM (inactive)
C[C@@H]1CN([C@H](C)CO)C(=O)CCCn2nncc2CO[C@@H]1CN(C)C(=O)Nc1ccnc(N2CCOCC2)c1	> 10 µM (inactive)
CCN(C[C@@H]1N[C@@H](CO)[C@H]1c1ccc(-c2ccc(F)cc2)cc1)C(=O)CN(C)C	> 10 µM (inactive)
C[C@@H]1CN([C@@H](C)CO)C(=O)CCCn2cc(nn2)CO[C@H]1CN(C)C(=O)Nc1cccc(C(F)(F)F)c1	> 10 µM (inactive)
C[C@@H]1CN([C@@H](C)CO)C(=O)CCCn2nncc2CO[C@H]1CN(C)S(=O)(=O)c1ccc(Oc2ccccc2)nc1	> 10 µM (inactive)
CN1[C@@H]2CN(C(=O)C3CCCCC3)c3ccccc3[C@@H]2[C@@H]1CO	> 10 µM (inactive)
O=C(C1CCOCC1)N1C[C@@H]2[C@H](c3ccccc31)[C@@H](CO)N2C(=O)Cc1ccccn1	> 10 µM (inactive)
C[C@H]1CN([C@@H](C)CO)C(=O)CCCn2cc(nn2)CO[C@@H]1CN(C)C(=O)CCC(F)(F)F	> 10 µM (inactive)
C[C@H]1CN([C@@H](C)CO)C(=O)CCCn2nncc2CO[C@H]1CN(C)CC1CCCCC1	> 10 µM (inactive)
O=C(NC[C@H]1N[C@H](CO)[C@H]1c1ccc(-c2ccccc2F)cc1)c1ccccn1	> 10 µM (inactive)
OC[C@@H]1[C@@H]2c3ccccc3NC[C@@H]2N1Cc1ccccc1Cl	> 10 µM (inactive)
O=C(C1CCCCC1)N1[C@H](CO)[C@H]2c3ccccc3N(S(=O)(=O)c3ccccc3)C[C@H]21	> 10 µM (inactive)
CN(C[C@H]1[C@H](c2ccccc2)[C@@H](CO)N1CC1CC1)C(=O)c1ccc(F)cc1	> 10 µM (inactive)
CNC[C@@H]1OCc2cn(nn2)CCCC(=O)N([C@@H](C)CO)C[C@H]1C	> 10 µM (inactive)
C/C=C/c1ccc([C@@H]2[C@@H](CO)N(C(C)=O)[C@@H]2CNC(=O)c2ccccc2)cc1	> 10 µM (inactive)
CN(C[C@@H]1N[C@H](CO)[C@H]1c1ccc(C2=CCCC2)cc1)C(=O)c1cccc(F)c1	> 10 µM (inactive)
C[C@@H]1CN([C@@H](C)CO)C(=O)CCCn2nncc2CO[C@H]1CN(C)S(=O)(=O)c1ccc2c(c1)OCCCO2	> 10 µM (inactive)
O=C(Nc1ccccc1F)N1C[C@H]2[C@@H](c3ccccc31)[C@H](CO)N2C(=O)Cc1cccnc1	> 10 µM (inactive)
COCC(=O)N1C[C@H]2[C@@H](c3ccccc31)[C@@H](CO)N2Cc1cc(F)ccc1F	> 10 µM (inactive)
Cc1noc(C)c1NC(=O)N(C)C[C@@H]1OCc2cnnn2CCCC(=O)N([C@@H](C)CO)C[C@@H]1C	> 10 µM (inactive)
CC(=O)N1[C@H](CO)[C@H](c2ccccc2)[C@H]1CN(C)S(=O)(=O)c1ccccc1	> 10 µM (inactive)
O=C(c1ccncc1)N1C[C@H]2[C@@H](c3ccccc31)[C@H](CO)N2C(=O)CN1CCOCC1	> 10 µM (inactive)
Cc1noc(C)c1NC(=O)N(C)C[C@H]1OCc2cnnn2CCCC(=O)N([C@H](C)CO)C[C@@H]1C	> 10 µM (inactive)
